Reference: patent publication US6555529B1, “Remedies for intramedullary diseases” (Toray Industries, Inc., priority 1997, dated 2003)
Marks after values point to notes of the source that are not given here.

Key:
[1] = system: chronic myelocytic leukaemia cell strain K562; assay: Suppression of K562 cell proliferation (MTT assay); type: cell-based; design: unit of the concentration uncertain; settings: 120 hours culture, mean ± SE
Experimental: (§1) Acute promyelocytic leukaemia cell strain KG-1, T-cell type acute lymphoblastic leukaemia cell strain RPMI-8402, B-cell-type acute lymphoblastic leukaemia cell strain CCRF-SB, chronic myelocytic leukaemia cell strain K562 and myeloblastoma cell strain ML-2 were prepared at concentrations of 2×10^4 or 4×10^4 cells per ml of culture medium. In each case, 0.05 ml quantities were added per well of a 96 well culture plate and culturing carried out at a carbon dioxide concentration of 5% for 24 hours at 37° C. Furthermore, 0.05 ml quantities of culture medium to which Compound 1 had been added were added to the aforesaid culture plate, and culturing carried out under the same conditions for 120 hours. The number of cells when the culturing was completed was calculated by the MTT calorimetric assay and the percentage suppression of tumour cell proliferation in terms of a control group to which no compound had been added was determined.
(§2) As well as Compound 1, there were used as test compounds 1-hydroxyethane-1,1-bisphosphonic acid disodium salt (Compound 6) and (4-chlorophenylthio)methane-1,1-bisphosphonic acid disodium salt (Compound 7). The results are shown in Table 2 as mean values±standard errors.
(§3) Using Dunett multiple comparison method (parametric), the results were assigned the symbol * when significant at a level of significance of p<0.05, and the symbol *** when significant at a level of significance of p<0.001, compared to the control group.

tumour cells = assay: Suppression of leukaemia cell and myeloma cell proliferation (summary over all cell strains); type: cell-based; settings: summary of Table 2
Experimental: as §1
As well as Compound 1, there were used as test compounds 1-hydroxyethane-1,1-bisphosphonic acid disodium salt (Compound 6) and (4-chlorophenylthio)methane-1,1-bisphosphonic acid disodium salt (Compound 7). The results are shown in Table 2 as mean values±standard errors. […]

[2] = system: myeloblastoma cell strain ML-2; assay: Suppression of ML-2 cell proliferation (MTT assay); type: cell-based; design: unit of the concentration uncertain; settings: 120 hours culture, mean ± SE
Experimental: as §1, §2, §3

[3] = system: acute promyelocytic leukaemia cell strain KG-1; assay: Suppression of KG-1 cell proliferation (MTT assay); type: cell-based; design: unit of the concentration uncertain; settings: 120 hours culture, mean ± SE
Experimental: as §1, §2, §3

[4] = system: T-cell type acute lymphoblastic leukaemia cell strain RPMI-8402; assay: Suppression of RPMI-8402 cell proliferation (MTT assay); type: cell-based; settings: 120 hours culture, mean ± SE
Experimental: as §1, §2, §3

[5] = system: B-cell-type acute lymphoblastic leukaemia cell strain CCRF-SB; assay: Suppression of CCRF-SB cell proliferation (MTT assay); type: cell-based; design: unit of the concentration uncertain; settings: 120 hours culture, mean ± SE
Experimental: as §1, §2, §3

[6] = system: osteomyelitis accompanying adjuvant arthritis (neutrophil infiltration into joints); assay: Suppression of osteomyelitis accompanying rat adjuvant arthritis; type: in vivo; settings: for Osteomyelitis score for the intertarsal and tarsometatarsal joints / Osteomyelitis score for the talocrural joint region: Lewis rats, scored day 22, grades 0-3, mean ± SE; for osteomyelitis suppressing effect (in words): rat adjuvant arthritis, summary of Table 1
Experimental: 0.1 mg of inactivated dried Mycobacterium butyricum was suspended in 0.1 ml of liquid paraffin, and this was injected into the left hind foot pad of 8-week old female Lewis rats. […] As a control group, the subcutaneous administration of sterile distilled water was carried out. One day after the completion of the administration (day 22) the rats were sacrificed, the skin and muscle removed from the right hind limb and, following decalcification, pathological specimens were prepared. […] Furthermore, Diclofenac (Compound 4) and Indomethacin (Compound 5) were used as existing anti-inflammatory drugs. The results obtained are shown in Table 1 as mean values±standard errors. Using the […] multiple comparison method (parametric), the results were assigned the symbol * when significant at a level of significance of p<0.05, and the symbol ** when significant at a level of significance of p<0.01, compared to the control group in which only sterile distilled water was used.

| Compound | Percentage suppression of K562 cell proliferation ([1]; 1 (unit uncertain)) | Percentage suppression of K562 cell proliferation ([1]; 10 (unit uncertain)) | Percentage suppression of K562 cell proliferation ([1]; 100 (unit uncertain)) | proliferation of tumour cells (in words) (tumour cells) | Percentage suppression of ML-2 cell proliferation ([2]; 1 (unit uncertain)) | Percentage suppression of ML-2 cell proliferation ([2]; 10 (unit uncertain)) | Percentage suppression of ML-2 cell proliferation ([2]; 100 (unit uncertain)) | Percentage suppression of KG-1 cell proliferation ([3]; 1 (unit uncertain)) | Percentage suppression of KG-1 cell proliferation ([3]; 10 (unit uncertain)) | Percentage suppression of KG-1 cell proliferation ([3]; 100 (unit uncertain)) | Percentage suppression of RPMI8402 cell proliferation ([4]; 1 mM) | Percentage suppression of RPMI8402 cell proliferation ([4]; 10 mM) | Percentage suppression of RPMI8402 cell proliferation ([4]; 100 mM) | Percentage suppression of CCRF-SB cell proliferation ([5]; 1 (unit uncertain)) | Percentage suppression of CCRF-SB cell proliferation ([5]; 10 (unit uncertain)) | Percentage suppression of CCRF-SB cell proliferation ([5]; 100 (unit uncertain)) | osteomyelitis suppressing effect (in words) [6] | also measured |
| --- | --- | --- | --- | --- | --- | --- | --- | --- | --- | --- | --- | --- | --- | --- | --- | --- | --- | --- |
| O=P([O-])([O-])C(Sc1ccc(Cl)cc1)P(=O)(O)O.[Na+].[Na+] [Compound 7, (4-chlorophenylthio)methane-1,1-bisphosphonic acid disodium salt] | 97.8 ± 0.3*** % | −1.0 ± 1.3% | −3.1 ± 0.5% | suppressed | 130.4 ± 11.2*** % | 7.3 ± 7.3% | 42.8 ± 10.1* % | 97.1 ± 0.6*** % | −1.1 ± 1.1% | 2.2 ± 1.6% | 87.2 ± 0.6*** % | −2.5 ± 2.0% | 7.4 ± 6.3% | 61.3 ± 1.1*** % | 0.1 ± 1.9% | 3.5 ± 2.2% |  |  |
| NCCCC(O)(P(=O)(O)O)P(=O)(O)O [Compound 2, 4-amino-1-hydroxybutane-1,1-bisphosphonic acid] |  |  |  |  |  |  |  |  |  |  |  |  |  |  |  |  | suppressed | Osteomyelitis score for the intertarsal and tarsometatarsal joints ([6]; 0.31 mg/kg, Table 1-2): 0.2 ± 0.17**; Osteomyelitis score for the talocrural joint region ([6]; 0.31 mg/kg, Table 1-2): 0.0 ± 0.0** |
| O=P(O)(O)C(O)(Cc1cccnc1)P(=O)(O)O [Compound 3, 2-(3-pyridyl)-1-hydroxyethane-1,1-bisphosphonic acid] |  |  |  |  |  |  |  |  |  |  |  |  |  |  |  |  | suppressed | Osteomyelitis score for the intertarsal and tarsometatarsal joints ([6]; 0.31 mg/kg, Table 1-3): 0.0 ± 0.0**; Osteomyelitis score for the talocrural joint region ([6]; 0.31 mg/kg, Table 1-3): 0.0 ± 0.0** |
| COc1ccc2c(c1)c(CC(=O)O)c(C)n2C(=O)c1ccc(Cl)cc1 [Compound 5, Indomethacin, reference compound] |  |  |  |  |  |  |  |  |  |  |  |  |  |  |  |  | weak | Osteomyelitis score for the intertarsal and tarsometatarsal joints ([6]; 0.1 mg/kg, Table 1-5): 2.5 ± 0.2; Osteomyelitis score for the talocrural joint region ([6]; 0.1 mg/kg, Table 1-5): 1.8 ± 0.4 |
| CC(O)(P(=O)([O-])[O-])P(=O)(O)O.[Na+].[Na+] [Compound 6, 1-hydroxyethane-1,1-bisphosphonic acid disodium salt] | 44.4 ± 1.3*** % | −2.5 ± 0.3% | 3.2 ± 0.6% | suppressed | 147.2 ± 20.4*** % | −20.6 ± 17.2% | 16.0 ± 17.2% | 40.7 ± 1.7*** % | 1.6 ± 2.1% | 2.9 ± 2.4% | 28.2 ± 2.0*** % | −3.4 ± 1.3% | 2.9 ± 1.5% | 42.1 ± 0.9*** % | 2.2 ± 0.8% | 0.4 ± 1.2% |  |  |
| O=C(O)Cc1ccccc1Nc1c(Cl)cccc1Cl [Compound 4, Diclofenac, reference compound] |  |  |  |  |  |  |  |  |  |  |  |  |  |  |  |  | weak | Osteomyelitis score for the intertarsal and tarsometatarsal joints ([6]; 0.1 mg/kg, Table 1-4): 1.8 ± 0.2; Osteomyelitis score for the talocrural joint region ([6]; 0.1 mg/kg, Table 1-4): 1.2 ± 0.3 |
